Assay results published in publication PMC7305224, “Mutually stabilizing interactions between proto-peptides and RNA” (Nature Communications, 2020).
Non-standard residues stand in square brackets, D forms with d. Residues, ends and D or L forms follow the SMILES beside them. Dab = NCC[C@H](N)C(=O)O

Tests used:
Assay type in all cases: binding
[1] = tested on: RNA duplex 1 (5′-rCrGrCrUrArArArUrCrG-3′ & 5′-rCrGrArUrUrUrArGrCrG-3′); test: RNA thermal denaturation (Tm) by UV hyperchromicity at 260 nm with synthetic peptides/depsipeptides, RNA duplex 1; conditions: 100 mM NaCl; for RNA duplex 1 Tm: observed Tm with peptide/depsipeptide 100 µM, mean ± SD of 2-4 independent experiments; for RNA duplex 1 ΔTm: peptide/depsipeptide 100 μM, RNA 2.5 μM each strand, mean of 2–4 replicates
Protocol: Each sample contained RNA duplex 1 (5′-rCrGrCrUrArArArUrCrG-3′ and 5′-rCrGrArUrUrUrArGrCrG-3′, 2.5 μM strand) and peptide/depsipeptide (100 μM) in buffered solution (10 mM phosphate, 100 mM NaCl, pH 7.0 or 10 mM acetate, 100 mM NaCl, pH 5.0). a Structures of depsipeptides used to systematically characterize cationic side chain effects on RNA duplex stability. Lactic acid residues are highlighted. Ac acetyl, Aba acetamidobenzoic acid, which was appended to the N-terminus to increase UV absorbance. b Structures of the Fmoc-didepsipeptide building blocks used for solid-phase synthesis of depsipeptide sequences. Fmoc fluorenylmethoxycarbonyl. c Comparative effects of oligo-didepsipeptide sequences 2–6 and analogous oligo-dipeptide and on the Tm of the RNA duplex (number of independent measurements: n = 3 for Arg and Lys sequences; n = 2 for His and Dab sequences; n = 4 for Orn sequences). The shaded areas correspond to the mean ± SD Tm measured for the RNA duplex alone (n = 16 independent measurements). Data are shown as a scatter plot with mean ± SD. d Comparative effects on RNA duplex Tm of depsipeptide sequences containing a single backbone ester (number of independent measurements: n = 3 for Arg; n = 2 for His, Orn, and Dab; n = 4 for Lys), relative to RNA duplex alone (n = 16 independent measurements). Data are shown as a scatter plot with mean ± SD. e To assess the impact of different cationic side chains on depsipeptide degradation rates, depsipeptides 7–11 (40 μM) were incubated at 37 °C in buffer (100 mM HEPES, 10 mM NaCl, pH 7.3). After 5 min, the reactions were quenched by the addition of 3% TFA, and samples were analyzed by HPLC.
(§1) Prior to Tm analyses, RNA samples were annealed in the appropriate buffer by heating to 75 °C and slowly cooling to room temperature. Depsipeptide/peptide was added to the annealed RNA and incubated at 4 °C for 20 min prior to carrying out the analysis. For analyses involving dry-down reaction mixtures, the Tm was determined by monitoring fluorescence increase upon melting of a fluorophore/quencher-labeled RNA duplex (5′-rCrGrArUrUrUrArGrCrG-/3IABkFQ/-3′ and 3′-rGrCrUrArArArUrCrGrC-FAM-5′) using a BioRad CFX Connect rtPCR instrument with a heating ramp of 1 °C/min and 20 μL final sample volumes. For analyses involving pure, synthetic compounds, the Tm of the RNA was determined by monitoring UV hyperchromicity at 260 nm using a Varian Cary Bio-100 spectrophotometer, with a heating ramp of 1 °C/min and 0.5- or 1-cm pathlength cells. The following RNA sequences were used: RNA duplex 1 = 5′-rCrGrCrUrArArArUrCrG-3′ and 5′-rCrGrArUrUrUrArGrCrG-3′; RNA duplex 2 = 5′-rArArArArUrUrUrArUrArUrUrArUrUrA-3′ and 5′-rUrArArUrArArUrArUrArArArUrUrUrU-3′; RNA duplex 3 = 5′-rArArCrGrUrArUrArCrGrUrU-3′ (palindromic); and H26a RNA = 5′-rArUrGrArGrUrArArCrCrGrUrArArGrGrUrGrArArArUrU-3′. RNA was present in each assay at a final concentration of 2.5 μM of the folded structure (2.5 μM each strand for duplex 1 and duplex 2, 5.0 μM palindromic strand for duplex 3, 2.5 μM strand for H26a RNA). Tm values were determined by nonlinear fitting of the melting curves using GraphPad Prism 8.2.1 for duplex 1 and H26a, or by finding the maximum of the first derivative of the curve using the Varian Cary Bio-100 software for duplex 2 and duplex 3.

RNA duplex 1 = test: CD analysis of RNA duplex with peptides/depsipeptides; conditions: RNA duplex 5 µM, peptide/depsipeptide 0–10 µM, MES-TEA buffer (60 mM)
Text: The gel was cropped at the edges for clarity. […] […] Red and blue colors of the filled circles correspond to curves of the same color in panel (c). […] […] Scans were from 320 nm to 220 nm with a bandwidth of 5 nm, data pitch of 0.2 nm, and scan rate of 50 nm/min with three accumulations. […] Data were collected in independent triplicates and the data were averaged. Finally, data were smoothed and plotted using Matlab.

[2] = tested on: RNA duplex 3 (5′-rArArCrGrUrArUrArCrGrUrU-3′, palindromic); test: RNA thermal denaturation (Tm) by UV hyperchromicity, RNA duplex 3; conditions: for RNA duplex 3 Tm: observed Tm with peptide/depsipeptide 100 µM, pH 7.0, RNA alone 48.6 ± 0.7, mean ± SD of 2-4 independent experiments; for RNA duplex 3 ΔTm: peptide/depsipeptide 100 μM, 5.0 μM palindromic strand, pH 7.0, 10 mM phosphate, 100 mM NaCl, mean of 2–4 replicates
Protocol: as §1, with “3. Both methods of determining the Tm gave similar values for a given denaturation curve.” for “3.”

[3] = tested on: H26a RNA (5′-rArUrGrArGrUrArArCrCrGrUrArArGrGrUrGrArArArUrU-3′); test: RNA thermal denaturation (Tm) by UV hyperchromicity, H26a RNA hairpin; conditions: for H26a RNA Tm: observed Tm with peptide/depsipeptide 100 µM, pH 7.0, RNA alone 53.4 ± 0.5, mean ± SD of 2-4 independent experiments; for H26a RNA ΔTm: peptide/depsipeptide 100 μM, RNA 2.5 μM strand, pH 7.0, 10 mM phosphate, 100 mM NaCl, mean of 2–4 replicates
Protocol: as §1, with “3. Both methods of determining the Tm gave similar values for a given denaturation curve.” for “3.”

[4] = tested on: RNA duplex 2 (5′-rArArArArUrUrUrArUrArUrUrArUrUrA-3′ and 5′-rUrArArUrArArUrArUrArArArUrUrUrU-3′); test: RNA thermal denaturation (Tm) by UV hyperchromicity, RNA duplex 2; conditions: for RNA duplex 2 Tm: observed Tm with peptide/depsipeptide 100 µM, pH 7.0, RNA alone 33.7 ± 0.7, mean ± SD of 2-4 independent experiments; for RNA duplex 2 ΔTm: peptide/depsipeptide 100 μM, RNA 2.5 μM each strand, pH 7.0, 10 mM phosphate, 100 mM NaCl, mean of 2–4 replicates
Protocol: as §1, with “3. Both methods of determining the Tm gave similar values for a given denaturation curve.” for “3.”

[5] = pH 5.0, 10 mM acetate, RNA alone 41.5 ± 0.3
[6] = pH 7.0, 10 mM phosphate, RNA alone 43.8 ± 0.4
[7] = 10 mM acetate, pH 5.0, vs RNA alone at pH 5.0
[8] = 10 mM phosphate, pH 7.0, vs RNA alone at matched pH

| Compound | RNA duplex 1 Tm [1, 5] | RNA duplex 1 Tm [1, 6] | RNA duplex 1 ΔTm [1, 7] | RNA duplex 1 ΔTm [1, 8] | changes in CD spectra of the RNA duplex upon addition (RNA duplex 1) | RNA duplex 3 Tm [2] | RNA duplex 3 ΔTm [2] | H26a RNA Tm [3] | H26a RNA ΔTm [3] | RNA duplex 2 Tm [4] | RNA duplex 2 ΔTm [4] |
| --- | --- | --- | --- | --- | --- | --- | --- | --- | --- | --- | --- |
| Aba-His-lac-His-lac-His-lac-His-lac-His-lac-His-lac-His-lac-His-lac-NH2 [compound 3] | 46.1 ± 0.7 °C | 44.3 ± 1.0 °C | 4.6 °C | 0.5 °C | – | – | – | – | – | – | – |
| CC(=O)N[C@@H](Cc1ccc(O)cc1)C(=O)NCC(=O)N[C@@H](C)C(=O)N[C@@H](CCN)C(=O)N[C@@H](CCCCN)C(=O)N[C@@H](C)C(=O)N[C@@H](CCN)C(=O)N[C@@H](CCCCN)C(=O)N[C@@H](C)C(=O)N[C@@H](CCN)C(=O)N[C@@H](CCCCN)C(=O)N[C@@H](C)C(=O)N[C@@H](CCN)C(=O)N[C@@H](CCCCN)C(=O)N[C@@H](C)C(=O)N[C@@H](CCN)C(=O)N[C@@H](CCCCN)C(N)=O (Ac-YGA[Dab]KA[Dab]KA[Dab]KA[Dab]KA[Dab]K-NH2) | – | – | – | – | physical association | – | – | – | – | – | – |
| Aba-Orn-lac-Orn-lac-Orn-lac-Orn-lac-Orn-lac-Orn-lac-Orn-lac-Orn-lac-NH2 [compound 5] | – | 43.8 ± 0.9 °C | – | 0.0 °C | – | 49.1 ± 0.1 °C | 0.5 °C | 52.3 ± 0.6 °C | −1.1 °C | 34.6 ± 0.7 °C | 1.0 °C |
| Aba-Arg-lac-Arg-lac-Arg-lac-Arg-lac-Arg-lac-Arg-lac-Arg-lac-Arg-lac-NH2 [compound 2] | – | 49.1 ± 0.7 °C | – | 5.3 °C | – | – | – | – | – | – | – |
| Aba-Dab-lac-Dab-lac-Dab-lac-Dab-lac-Dab-lac-Dab-lac-Dab-lac-Dab-lac-NH2 [compound 6] | – | 44.2 ± 0.2 °C | – | 0.4 °C | – | 48.2 ± 0.1 °C | −0.4 °C | 53.9 ± 0.2 °C | 0.5 °C | 36.2 ± 0.1 °C | 2.6 °C |
| Aba-Gly-Ala-Dab-Lys-Ala-Dab-His-lac-Dab-Lys-Ala-Dab-Lys-NH2 [compound 8] | 52.6 ± 0.2 °C | 48.9 ± 1.4 °C | 11.1 °C | 5.1 °C | – | – | – | – | – | – | – |
| CC(=O)N[C@@H](Cc1ccc(O)cc1)C(=O)NCC(=O)N[C@@H](C)C(=O)N[C@@H](CCN)C(=O)N[C@@H](CCCCN)C(=O)N[C@@H](C)C(=O)N[C@@H](CCN)C(=O)N[C@@H](CCCCN)C(N)=O [Ac-Tyr-Gly-Ala-Dab-Lys-Ala-Dab-Lys-NH2] (Ac-YGA[Dab]KA[Dab]K-NH2) | – | – | – | – | physical association | – | – | – | – | – | – |
| Aba-Lys-lac-Lys-lac-Lys-lac-Lys-lac-Lys-lac-Lys-lac-Lys-lac-Lys-lac-NH2 [compound 4] | – | 46.4 ± 0.1 °C | – | 2.6 °C | – | 52.5 ± 0.7 °C | 3.9 °C | 59.7 ± 0.6 °C | 6.3 °C | 35.2 ± 0.1 °C | 1.5 °C |
| CC(=O)N[C@@H](Cc1ccc(O)cc1)C(=O)NCC(=O)N[C@@H](C)C(=O)N[C@@H](CCN)C(=O)N[C@@H](CCCCN)C(=O)N[C@@H](C)C(=O)N[C@@H](CCN)C(=O)N[C@@H](CCCCN)C(=O)N[C@@H](C)C(=O)N[C@@H](CCN)C(=O)N[C@@H](CCCCN)C(N)=O (Ac-YGA[Dab]KA[Dab]KA[Dab]K-NH2) | – | – | – | – | physical association | – | – | – | – | – | – |
| Aba-Gly-Ala-Dab-Lys-Ala-Dab-Orn-lac-Dab-Lys-Ala-Dab-Lys-NH2 [compound 10] | – | 48.7 ± 1.2 °C | – | 4.9 °C | – | 51.1 ± 1.3 °C | 2.5 °C | 56.9 ± 0.1 °C | 3.5 °C | 41.8 ± 0.5 °C | 8.2 °C |
| Aba-Gly-Ala-Dab-Lys-Ala-Dab-Dab-lac-Dab-Lys-Ala-Dab-Lys-NH2 [compound 11] | – | 48.7 ± 0.2 °C | – | 4.9 °C | – | – | – | – | – | – | – |
| Aba-Gly-Ala-Dab-Lys-Ala-Dab-Arg-lac-Dab-Lys-Ala-Dab-Lys-NH2 [compound 7] | – | 52.5 ± 0.3 °C | – | 8.7 °C | – | 60.6 ± 0.8 °C | 12.0 °C | 64.8 ± 0.1 °C | 11.4 °C | 41.8 ± 0.6 °C | 8.1 °C |
